According to patent US20120202822A1, “COMBINATION” (priority 2009, published 2012):
pIC50: −log10 of the molar value.

Assays:
Experiment in all cases: Fixed Ratio Drug Combination Assay, cell proliferation (CellTiter Glo)
Type in all cases: cell-based, human
[1] = tested on: LS1034; conditions: for Ymin/T0: 72 hours; for pIC50: Homo sapiens, LS-1034, 72 hours, read-out: gIC50
Procedure: (§1) Combination drug tests with Compounds A and B were conducted using a panel of cell lines from human colon cancers (n=25) (Table 1). Cell lines were purchased commercially [from ATCC (Manassas, Va., USA) or DSMZ (Braunschweig, Germany)] and grown in RPMI-1640 supplemented with 2 mM glutamine, 1 mM sodium pyruvate and 10% fetal bovine serum and maintained at 37° C. and 5% CO2 in a humid incubator.
(§2) The dilution design of the Fixed Ratio Drug Combination Assay can be seen in FIG. 1. First, the test compounds were prepared as 10 mM stocks in 100% dimethyl sulfoxide (DMSO). Further dilutions of the compounds were made with DMSO. The first test compound (designated as Compound A) is diluted horizontally in a 96 well microtiter plate in rows B-E using a 3-fold dilution series for 10 dilution points. A second test compound (designated as Compound B) is diluted horizontally in a separate 96 well microtiter plate in rows D-G using a 3-fold dilution series for 10 dilution points. The two compounds are combined using equal volumes from each drug plate into cell culture media. […] Compound A is individually titrated in rows B and C, while only Compound B is dosed in rows F and G of the plate. An additional 1:10 dilution of the drugs is performed in cell culture media prior to addition to the cells. Drug addition to the cells results in a further 1:2 dilution of drugs. The total dilution of the drug plate to the cells is […]. The final dosing concentration range for Compound B was 0.1-1000.0 nM and was 0.5-10000.0 nM for Compound A. The positive control consists of culture media with DMSO at 0.1% and cells and no drug. The negative control consists of culture media with DMSO at 0.1%. solution.
(§3) Assays were performed in 96 well microtiter plates with appropriate seeding densities estimated from previous studies of each cell line. Following dosing, the cell lines are incubated at 37° C., 5% CO2 in humid air for 72 hours. Cell proliferation was measured using the CellTiter Glo (Promega Corporation, Madison, Wis., USA) reagent according to the manufacturer's protocol. The plates are treated with CellTiter Glo solution and are analyzed for RLU (relative light units) using a Molecular Devices SpectraMax M5 (Sunnyvale, Calif., USA) plate reader.
(§4) Results are expressed as a percentage of the number of cells present at the time of compound addition value (T0) and plotted against compound(s) concentration. The percent intensity values were used in model 205 of the IDBS XLfit plug-in for Microsoft Excel to calculate gIC50 values using a 4 parameter logistical fit. Background correction is made by subtraction of values from wells containing no cells. The midpoint of the growth window (the gIC50) falls half way between the number of cells at the time of compound addition and the growth of control cells treated with DMSO at 72 hrs. The number of cells at time zero is divided from the intensity value at the bottom of the response curve (Ymin) to generate a measure for cell death (Ymin/T0). A value below 1 for Ymin/T0 indicates stronger potency with the treatment when compared to higher values. For duplicate assays, all response metrics are averaged for presentation.
(§5) Three independent metrics were used to analyze the combinatorial effects on growth inhibition of Compound B and Compound A. • 1. Excess over Highest Single Agent (EOHSA)—One standard criterion for measuring drug combinatorial effects is analyzing the effects on cell growth inhibition in absolute terms. In this case, the combination of drugs is compared to the more responsive of the two individual treatments (single agent). For each combination experiment, the percent effect relative to the highest single agent for each dose along the curve is generated. This measure of “Excess of Highest Single Agent (EOHSA)” is one of the criteria used for evaluating synergy of drug combinations. […]

[2] = tested on: NCIH747; conditions: for Ymin/T0: 72 hours; for pIC50: Homo sapiens, NCI-H747, 72 hours, read-out: gIC50
Procedure: as §1, §2, §3, §4, §5

[3] = tested on: SW403; conditions: for Ymin/T0: 72 hours; for pIC50: Homo sapiens, SW-403, 72 hours, read-out: gIC50
Procedure: as §1, §2, §3, §4, §5

[4] = tested on: SW837; conditions: 72 hours; for pIC50: Homo sapiens, read-out: gIC50
Procedure: as §1, §2, §3, §4, §5

[5] = tested on: T84; conditions: 72 hours; for pIC50: Homo sapiens, read-out: gIC50
Procedure: as §1, §2, §3, §4, §5

[6] = tested on: NCIH716; conditions: for Ymin/T0: 72 hours; for pIC50: Homo sapiens, NCI-H716, 72 hours, read-out: gIC50
Procedure: as §1, §2, §3, §4, §5

[7] = tested on: COLO205; conditions: for Ymin/T0: 72 hours; for pIC50: Homo sapiens, COLO 205, 72 hours, read-out: gIC50
Procedure: as §1, §2, §3, §4, §5

[8] = tested on: SW948; conditions: 72 hours; for pIC50: Homo sapiens, read-out: gIC50
Procedure: as §1, §2, §3, §4, §5

[9] = tested on: NCIH630; conditions: for Ymin/T0: 72 hours; for pIC50: Homo sapiens, NCI-H630, 72 hours, read-out: gIC50
Procedure: as §1, §2, §3, §4, §5

[10] = tested on: HCT8; conditions: for Ymin/T0: 72 hours; for pIC50: Homo sapiens, HCT-8, 72 hours, read-out: gIC50
Procedure: as §1, §2, §3, §4, §5

[11] = tested on: HCT116; conditions: for Ymin/T0: 72 hours; for pIC50: Homo sapiens, HCT-116, 72 hours, read-out: gIC50
Procedure: as §1, §2, §3, §4, §5

[12] = tested on: SW480; conditions: 72 hours; for pIC50: Homo sapiens, read-out: gIC50
Procedure: as §1, §2, §3, §4, §5

[13] = tested on: HCT15; conditions: for Ymin/T0: 72 hours; for pIC50: Homo sapiens, HCT-15, 72 hours, read-out: gIC50
Procedure: as §1, §2, §3, §4, §5

[14] = tested on: SW1463; conditions: 72 hours; for pIC50: Homo sapiens, read-out: gIC50
Procedure: as §1, §2, §3, §4, §5

[15] = tested on: LS174T; conditions: 72 hours; for pIC50: Homo sapiens, read-out: gIC50
Procedure: as §1, §2, §3, §4, §5

[16] = tested on: RKO; conditions: 72 hours; for pIC50: Homo sapiens, read-out: gIC50
Procedure: as §1, §2, §3, §4, §5

[17] = tested on: SW1417; conditions: 72 hours; for pIC50: Homo sapiens, read-out: gIC50
Procedure: as §1, §2, §3, §4, §5

[18] = tested on: HCC2998; conditions: for Ymin/T0: 72 hours; for pIC50: Homo sapiens, HCC 2998, 72 hours, read-out: gIC50
Procedure: as §1, §2, §3, §4, §5

[19] = tested on: KM12; conditions: 72 hours; for pIC50: Homo sapiens, read-out: gIC50
Procedure: as §1, §2, §3, §4, §5

[20] = tested on: DLD1; conditions: for Ymin/T0: 72 hours; for pIC50: Homo sapiens, DLD-1, 72 hours, read-out: gIC50
Procedure: as §1, §2, §3, §4, §5

[21] = tested on: NCIH508; conditions: for Ymin/T0: 72 hours; for pIC50: Homo sapiens, NCI-H508, 72 hours, read-out: gIC50
Procedure: as §1, §2, §3, §4, §5

CC(C)(C)c1nc(-c2cccc(NS(=O)(=O)c3c(F)cccc3F)c2F)c(-c2ccnc(N)n2)s1 [Compound A, N-{3-[5-(2-amino-4-pyrimidinyl)-2-(1,1-dimethylethyl)-1,3-thiazol-4-yl]-2-fluorophenyl}-2,6-difluorobenzenesulfonamide]
Ymin/T0 [1]: 1.9
pIC50 [1]: < 5.00
Ymin/T0 [2]: 1.3
pIC50 [2]: < 5.00
Ymin/T0 [3]: 2.7
pIC50 [3]: < 5.00
Ymin/T0 [4]: 2.3
pIC50 [4]: < 5.00
Ymin/T0 [5]: 2.0
pIC50 [5]: < 5.00
Ymin/T0 [6]: 1.3
pIC50 [6]: < 5.00
Ymin/T0 [7]: 1.2
pIC50 [7]: 8.14
Ymin/T0 [8]: 1.5
pIC50 [8]: < 5.00
Ymin/T0 [9]: 1.9
pIC50 [9]: 5.30
Ymin/T0 [10]: 9.2
pIC50 [10]: < 5.00
Ymin/T0 [11]: 9.2
pIC50 [11]: < 5.00
Ymin/T0 [12]: 2.9
pIC50 [12]: < 5.00
Ymin/T0 [13]: 6.1
pIC50 [13]: < 5.00
Ymin/T0 [14]: 1.9
pIC50 [14]: < 5.00
Ymin/T0 [15]: 7.0
pIC50 [15]: < 5.00
Ymin/T0 [16]: 6.7
pIC50 [16]: 5.05
Ymin/T0 [17]: 1.1
pIC50 [17]: 6.61
Ymin/T0 [18]: 2.8
pIC50 [18]: 5.62
Ymin/T0 [19]: 8.8
pIC50 [19]: < 5.00
Ymin/T0 [20]: 6.7
pIC50 [20]: 6.70
Ymin/T0 [21]: 2.1
pIC50 [21]: 6.44

COc1ncc(-c2ccc3nccc(-c4ccnnc4)c3c2)cc1NS(=O)(=O)c1ccc(F)cc1F [Compound B, 2,4-difluoro-N-{2-(methyloxy)-5-[4-(4-pyridazinyl)-6-quinolinyl]-3-pyridinyl}benzenesulfonamide]
Ymin/T0 [1]: 0.5
pIC50 [1]: 8.85
Ymin/T0 [2]: 0.5
pIC50 [2]: 8.57
Ymin/T0 [3]: 0.5
pIC50 [3]: 8.82
Ymin/T0 [4]: 0.8
pIC50 [4]: 8.19
Ymin/T0 [5]: 0.7
pIC50 [5]: 8.22
Ymin/T0 [6]: 0.7
pIC50 [6]: 8.96
Ymin/T0 [7]: 1.4
pIC50 [7]: 7.92
Ymin/T0 [8]: 0.4
pIC50 [8]: 9.52
Ymin/T0 [9]: 0.9
pIC50 [9]: 7.74
Ymin/T0 [10]: 1.6
pIC50 [10]: 8.08
Ymin/T0 [11]: 4.1
pIC50 [11]: 7.47
Ymin/T0 [12]: 1.1
pIC50 [12]: 8.27
Ymin/T0 [13]: 2.4
pIC50 [13]: 8.14
Ymin/T0 [14]: 0.9
pIC50 [14]: 8.09
Ymin/T0 [15]: 0.8
pIC50 [15]: 7.47
Ymin/T0 [16]: 3.0
pIC50 [16]: 7.96
Ymin/T0 [17]: 1.3
pIC50 [17]: 8.85
Ymin/T0 [18]: 0.9
pIC50 [18]: 8.33
Ymin/T0 [19]: 1.4
pIC50 [19]: 7.66
Ymin/T0 [20]: 1.8
pIC50 [20]: 7.69
Ymin/T0 [21]: 0.5
pIC50 [21]: 8.92
